From article PMC4457528, “Identification of Novel Small Molecule Inhibitors of Oncogenic RET Kinase” (PLoS ONE, 2015) come the findings set out here.

Common to all, as to assay: KinomeScan kinase panel, single concentration 10 µM
What all share (assay type): binding

Experiment [1] addresses T1, KinomeScan kinase panel (Homo sapiens, UniProt P15735).
T1 construct: purchased DiscoveRx (KinomeScan)
T1 sequence (P15735 1-406): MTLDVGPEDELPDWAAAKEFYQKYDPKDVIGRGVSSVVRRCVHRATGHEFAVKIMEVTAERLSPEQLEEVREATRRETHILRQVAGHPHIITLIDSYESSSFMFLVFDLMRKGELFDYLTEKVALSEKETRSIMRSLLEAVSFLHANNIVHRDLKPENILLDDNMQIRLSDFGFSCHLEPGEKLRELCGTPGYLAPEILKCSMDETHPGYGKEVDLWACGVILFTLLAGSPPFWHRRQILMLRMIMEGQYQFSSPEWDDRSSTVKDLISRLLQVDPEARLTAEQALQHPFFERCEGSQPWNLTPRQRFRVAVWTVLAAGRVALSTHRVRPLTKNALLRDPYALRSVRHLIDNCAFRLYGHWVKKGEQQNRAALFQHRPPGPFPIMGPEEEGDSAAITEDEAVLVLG
Particulars: PHKG2, 10 µM; read-out: score (%).

Experiment [2] has as its target T2, KinomeScan kinase panel (Homo sapiens, UniProt Q13705).
T2 construct: purchased DiscoveRx (KinomeScan)
Particulars: ACVR2B, 10 µM.

Experiment [3] has as its target T3, KinomeScan kinase panel (Homo sapiens, UniProt P30291).
T3 construct: purchased DiscoveRx (KinomeScan)
Particulars: kinase WEE1; 10 µM; read-out: score (%).

Experiment [4] addresses T4, KinomeScan kinase panel (Homo sapiens, UniProt O14976).
T4 construct: purchased DiscoveRx (KinomeScan)
T4 sequence (O14976 1-1311): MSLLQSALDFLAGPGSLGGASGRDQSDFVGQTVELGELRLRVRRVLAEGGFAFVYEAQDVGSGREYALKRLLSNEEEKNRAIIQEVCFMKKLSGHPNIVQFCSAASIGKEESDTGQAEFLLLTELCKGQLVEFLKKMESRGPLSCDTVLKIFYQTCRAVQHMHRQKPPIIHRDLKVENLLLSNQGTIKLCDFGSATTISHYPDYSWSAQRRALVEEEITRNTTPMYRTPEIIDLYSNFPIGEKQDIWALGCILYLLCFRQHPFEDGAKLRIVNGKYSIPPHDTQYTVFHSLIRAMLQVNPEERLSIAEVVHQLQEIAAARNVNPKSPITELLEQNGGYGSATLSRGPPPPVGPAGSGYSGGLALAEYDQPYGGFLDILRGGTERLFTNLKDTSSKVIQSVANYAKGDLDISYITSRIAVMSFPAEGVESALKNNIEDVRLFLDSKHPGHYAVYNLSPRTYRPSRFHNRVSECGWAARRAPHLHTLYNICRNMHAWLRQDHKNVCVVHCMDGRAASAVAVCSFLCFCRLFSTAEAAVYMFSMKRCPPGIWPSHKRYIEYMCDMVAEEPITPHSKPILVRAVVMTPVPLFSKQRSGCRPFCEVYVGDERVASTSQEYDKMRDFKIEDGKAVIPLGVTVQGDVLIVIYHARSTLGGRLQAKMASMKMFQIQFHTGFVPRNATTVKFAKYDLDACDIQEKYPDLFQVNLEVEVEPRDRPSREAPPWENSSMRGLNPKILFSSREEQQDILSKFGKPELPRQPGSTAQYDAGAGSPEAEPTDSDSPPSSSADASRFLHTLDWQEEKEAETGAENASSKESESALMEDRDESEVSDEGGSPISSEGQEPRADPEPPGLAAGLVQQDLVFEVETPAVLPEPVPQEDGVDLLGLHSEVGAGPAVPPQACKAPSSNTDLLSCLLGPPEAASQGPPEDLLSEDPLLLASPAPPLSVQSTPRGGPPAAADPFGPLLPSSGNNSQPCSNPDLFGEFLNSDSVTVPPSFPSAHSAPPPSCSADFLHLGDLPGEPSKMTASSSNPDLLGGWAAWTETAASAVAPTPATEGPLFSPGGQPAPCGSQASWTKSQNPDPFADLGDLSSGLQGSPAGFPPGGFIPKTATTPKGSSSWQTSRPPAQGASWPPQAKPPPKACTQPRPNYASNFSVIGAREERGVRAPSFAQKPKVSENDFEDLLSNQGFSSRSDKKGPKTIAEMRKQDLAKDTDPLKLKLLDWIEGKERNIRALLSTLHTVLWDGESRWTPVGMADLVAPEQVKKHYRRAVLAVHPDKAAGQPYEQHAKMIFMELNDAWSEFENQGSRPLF
The following applies: GAK, 10 µM; read-out: score (%).

In experiment [5] the target is T5, KinomeScan kinase panel (Homo sapiens, UniProt P36888, N841I).
T5 construct: purchased DiscoveRx (KinomeScan)
T5 sequence (P36888 27-993 N841I): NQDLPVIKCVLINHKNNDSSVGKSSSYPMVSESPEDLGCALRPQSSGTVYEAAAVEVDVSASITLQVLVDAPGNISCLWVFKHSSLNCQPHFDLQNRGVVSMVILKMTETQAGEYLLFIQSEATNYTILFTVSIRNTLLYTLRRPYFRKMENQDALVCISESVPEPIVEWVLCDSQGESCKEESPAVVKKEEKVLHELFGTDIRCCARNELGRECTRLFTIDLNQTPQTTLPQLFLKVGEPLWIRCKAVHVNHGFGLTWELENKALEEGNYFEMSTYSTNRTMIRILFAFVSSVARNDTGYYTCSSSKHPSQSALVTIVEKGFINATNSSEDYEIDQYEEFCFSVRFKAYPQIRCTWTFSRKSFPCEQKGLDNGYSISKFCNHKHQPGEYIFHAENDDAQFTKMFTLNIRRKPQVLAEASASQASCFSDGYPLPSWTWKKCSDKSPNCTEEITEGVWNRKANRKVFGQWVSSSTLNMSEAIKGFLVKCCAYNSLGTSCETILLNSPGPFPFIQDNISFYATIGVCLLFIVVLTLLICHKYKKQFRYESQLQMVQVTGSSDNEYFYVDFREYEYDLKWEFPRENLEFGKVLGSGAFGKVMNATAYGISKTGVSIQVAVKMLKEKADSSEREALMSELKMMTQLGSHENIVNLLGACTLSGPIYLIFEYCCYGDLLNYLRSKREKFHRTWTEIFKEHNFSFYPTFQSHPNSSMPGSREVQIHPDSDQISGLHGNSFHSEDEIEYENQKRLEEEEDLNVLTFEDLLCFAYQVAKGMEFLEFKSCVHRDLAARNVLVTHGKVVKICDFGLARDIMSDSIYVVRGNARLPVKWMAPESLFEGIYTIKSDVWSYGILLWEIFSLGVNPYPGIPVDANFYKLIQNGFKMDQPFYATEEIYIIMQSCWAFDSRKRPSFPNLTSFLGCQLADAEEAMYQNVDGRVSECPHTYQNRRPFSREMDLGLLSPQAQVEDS
Particulars: FLT3(N841I), 10 µM; read-out: score (%).

The target of experiment [6] is T6, KinomeScan kinase panel (Homo sapiens, UniProt Q00535).
T6 construct: purchased DiscoveRx (KinomeScan)
Particulars: CDK5, 10 µM; read-out: score (%).

Bounds are passed on as bounds.

T3 sequence (P30291 whole entry): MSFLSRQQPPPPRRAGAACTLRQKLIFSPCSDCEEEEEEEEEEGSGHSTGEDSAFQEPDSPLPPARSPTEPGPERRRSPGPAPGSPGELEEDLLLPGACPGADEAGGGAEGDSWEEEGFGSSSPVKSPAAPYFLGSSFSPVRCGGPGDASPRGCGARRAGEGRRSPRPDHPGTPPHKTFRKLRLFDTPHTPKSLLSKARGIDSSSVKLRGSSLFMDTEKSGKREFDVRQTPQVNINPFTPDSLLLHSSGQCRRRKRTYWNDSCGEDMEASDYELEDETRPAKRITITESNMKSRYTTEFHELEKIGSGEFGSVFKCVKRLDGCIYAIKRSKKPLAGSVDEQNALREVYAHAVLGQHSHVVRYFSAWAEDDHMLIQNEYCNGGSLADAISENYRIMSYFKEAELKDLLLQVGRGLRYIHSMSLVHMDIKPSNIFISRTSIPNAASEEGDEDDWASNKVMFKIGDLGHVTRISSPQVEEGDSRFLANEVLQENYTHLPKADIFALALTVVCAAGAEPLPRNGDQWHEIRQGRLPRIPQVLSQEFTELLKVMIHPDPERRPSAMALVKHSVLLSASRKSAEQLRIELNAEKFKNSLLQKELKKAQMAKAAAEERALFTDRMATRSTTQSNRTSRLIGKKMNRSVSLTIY
T6 sequence (Q00535 whole entry): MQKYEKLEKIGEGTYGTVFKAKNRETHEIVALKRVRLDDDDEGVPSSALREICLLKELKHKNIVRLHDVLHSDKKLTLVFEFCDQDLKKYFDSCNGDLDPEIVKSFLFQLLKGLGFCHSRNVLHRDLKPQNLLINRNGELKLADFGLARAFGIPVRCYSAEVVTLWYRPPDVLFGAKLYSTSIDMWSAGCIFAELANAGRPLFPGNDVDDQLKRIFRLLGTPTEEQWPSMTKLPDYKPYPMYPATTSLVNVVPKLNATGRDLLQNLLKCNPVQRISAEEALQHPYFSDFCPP
T2 sequence (Q13705 19-512): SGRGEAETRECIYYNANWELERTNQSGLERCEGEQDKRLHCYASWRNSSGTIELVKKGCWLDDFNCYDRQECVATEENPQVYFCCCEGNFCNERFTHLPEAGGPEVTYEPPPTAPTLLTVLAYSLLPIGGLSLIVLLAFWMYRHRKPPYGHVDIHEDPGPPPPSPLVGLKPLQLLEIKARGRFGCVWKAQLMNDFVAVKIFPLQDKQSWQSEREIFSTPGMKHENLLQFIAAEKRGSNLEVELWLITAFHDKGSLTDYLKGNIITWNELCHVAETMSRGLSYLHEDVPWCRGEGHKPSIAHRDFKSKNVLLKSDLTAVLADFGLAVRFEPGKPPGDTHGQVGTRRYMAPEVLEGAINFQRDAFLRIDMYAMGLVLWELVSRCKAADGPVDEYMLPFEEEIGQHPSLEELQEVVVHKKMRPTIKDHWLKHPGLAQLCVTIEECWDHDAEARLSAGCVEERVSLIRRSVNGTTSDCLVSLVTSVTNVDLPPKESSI

As to `CCN1CCN(Cc2ccc(NC(=O)c3ccc(C)c(NC(=O)c4cncc(-c5cccs5)c4)c3)cc2C(F)(F)F)CC1` [ALW-II-41-27], the remaining binding at 10 µM was more than 30% in experiment [1]; more than 30% in experiment [3]; 1.6% in experiment [4]; 0.75% in experiment [5]; more than 30% in experiment [6]. In addition, the “score (%)” value in experiment [2] is “nb (Hits values higher than 30% were considered negative (no binding: nb))”.

On to `CCN1CCN(Cc2ccc(NC(=O)c3ccc(C)c(/C=C/c4cnc5[nH]ccc5c4Cl)c3)cc2C(F)(F)F)CC1` [HG-6-63-01, (E)-3-(2-(4-chloro-1H-pyrrolo[2,3-b]pyridin-5-yl)vinyl)-N-(4-((4-ethylpiperazin-1-yl)methyl)-3-(trifluoromethyl)phenyl)-4-methylbenzamide], for which the remaining binding at 10 µM in experiment [1] is more than 30%; in experiment [3] it was more than 30%; in experiment [4], 4.3%; in experiment [5], 0.15%; in experiment [6] it was more than 30%. Further, the “score (%)” value in experiment [2] was “nb (Hits values higher than 30% were considered negative (no binding: nb))”.

With `CCN1CCN(Cc2ccc(NC(=O)c3ccc(C)c(C#Cc4cccnc4)c3)cc2C(F)(F)F)CC1` [XMD15-44], the remaining binding at 10 µM in experiment [1] is 92%; in experiment [3], 100%; in experiment [4], 7.4%; in experiment [5], 0%; in experiment [6], 10%. Besides, in experiment [2], the “score (%)” value was “nb (Hits values higher than 30% were considered negative (no binding: nb))”.
